Source: patent US20190365680A1, “USE OF EP4 RECEPTOR ANTAGONISTS FOR THE TREATMENT OF NASH-ASSOCIATED LIVER CANCER” (AskAt Inc., priority 2016, published 2019)

Key:
[1] = Body weight in the NASH-associated mouse liver cancer model; format: in vivo; details: 30 mg/kg QD from 19 to 30 weeks of age; weight at the age of 30 weeks
Experimental: FIG. 4 depicts the average body weight of the vehicle-treated group and Compound A-treated group at the age of 30 weeks. Data are represented as means ±SD.
(§1) This mouse model was developed by treating with DMBA, 7,12-dimethylbenz(a)anthracene, and by feeding a high fat diet (HFD) (NPL 15). […] In this experiment, Compound A 30 mg/kg QD was administered to the mice every day from 19 weeks of age to 30 weeks of age (FIG. 1). As a control, a separate group of mice were treated only with a vehicle and no active ingredient.

[2] = system: obesity-induced NASH-associated liver cancer; assay: Obesity-induced (DMBA + high fat diet) NASH-associated mouse liver cancer model: liver tumor development; format: in vivo
Experimental: FIG. 1 depicts a mouse model timeline developed by treating with 7,12-dimethylbenz(a)anthracene (“DMBA”), and by feeding with a high fat diet (HFD). Compound A was administered to the mice every day from 19 weeks of age to 30 weeks of age and then euthanized (“Eut”).
FIG. 2 is macroscopic photographs of the liver isolated from the vehicle-treated mice (left side) and Compound A-treated mice (right side). […] Compound A or a vehicle (n=5, each) were treated to the mice every day from 19 weeks of age to 30 weeks of age. Arrowheads identify hepatocellular carcinomas (HCCs).
FIG. 3 depicts the average liver tumor numbers and the relative size distribution (classified as >6 mm, 2-6 mm, ≤2 mm). “NS” means not significant.
C57/BL6 mice were purchased from CLEA Japan Inc. The Tlr2^−/− mice (C57/BL6) were purchased from Oriental Yeast Co. Ltd.
Hematoxylin and eosin staining and immunofluorescence analysis were performed as previously described (Yoshimoto et al., Nature, 2013, 499:97-101).
P values less than 0.05 were considered significant. “NS” indicates not significant.
as §1

[3] = system: immune cells obtained from mouse livers; details: liver; 30 mg/kg QD from 19 to 30 weeks of age; vs vehicle
Experimental: FIG. 5A depicts flow cytometry analysis of immune cells between vehicle-treated mice or Compound A-treated mice. The percentages of total CD11c^hi MHC class II (MHC II)^hi, CD11b^+ CD11c^hi MHC II^hi, or CD103^+ CD11c^hi MHC II^hi cells were analyzed by flow cytometry. Data are represented as means ±SEM.
FIG. 6A depicts the percentages of CD3^+ CD4^+ Foxp3^+, CD3^+ CD4^+ Foxp3^−, CD3^+ CD8^+ cells analyzed by flow cytometry. The ratio of CD8^+ T cells to CD4^+ Foxp3^+ Tregs was calculated. Data are represented as means ±SEM. NS=not significant, *p<0.05, **p<0.01.
In FIG. 7A, the percentages of CD69^+ CD8^+ cells were analyzed by flow cytometry (*p<0.05, **p<0.01).
In FIG. 8A, the percentages of PD-1^+ CD8^+ cells were analyzed by flow cytometry (*p<0.05, **p<0.01).
Immune cells were obtained from mouse livers and were subjected to measuring cytokine production and flow cytometric analysis.
Data were analyzed by unpaired t-test with Welch correction (two-side) or Man-Whitney test (two-side). P values less than 0.05 were considered significant. “NS” indicates not significant.
The impact of EP4 blockage on the prevalence and activation status of immune cells was assessed.

In the case of `C[C@H](NC(=O)c1cc(Cl)cnc1Oc1cccc(F)c1)c1ccc(C(=O)O)cc1` [Compound A, 4-[(1S)-1-({[5-chloro-2-(3-fluorophenoxy)pyridin-3-yl]carbonyl}amino)ethyl]-benzoic acid], the body weight [1] was “did not influence”, the “Hepatocellular carcinoma (HCC) development compared to vehicle-treated mice” value ([2]; C57/BL6 mice, DMBA + HFD, 30 mg/kg QD every day from 19 to 30 weeks of age) was “strongly reduced” and the “Tumor colony sized more than 6 mm” value ([2]; DMBA + HFD mice, treated every day from 19 to 30 weeks of age) was “completely disappeared”. For the same compound, the “tumor number in the liver compared to vehicle-treated mice” value ([2]; DMBA + HFD mice, treated every day from 19 to 30 weeks of age, n=5) was “significantly inhibited”, the “frequency of CD4+Foxp3+ regulatory T cells (Tregs)” value [3] was “significantly reduced” and the “frequency of CD8+ T cells” value [3] was “not changed”. For the same compound, the “frequency of CD11b+ DCs” value [3] was “not changed”, the “frequency of CD11chi MHC class IIhi dendritic cells (DCs)” value [3] was “not changed” and the “number of CD8+ T cells expressing programmed cell death-1 (PD-1)” value [3] was “significantly reduced”. For the same compound, the “number of CD8+ T cells expressing the activation marker CD69” value [3] was “significantly increased”, the “population of CD103+ DCs” value [3] was “increased” and the “ratio of CD8+ T cells to Tregs” value [3] was “increased”.
